Legend:
CYP2D6 = CYP2D6 (Homo sapiens (Human), UniProt P10635); assay: Cytochrome P450 CYP2D6 inhibition in human liver microsomes; format: in vitro ADME; details: for IC50 / inhibition at 20 min, 1 µM: human liver microsomes, average value from two experiments; for inhibition at 20 min, 1 µM: probe dextromethorphan 2 µM (dextrorphan formation), 1 uM test compound, negative values = no effective inhibition
Outline: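 Human liver microsomes (0.2 mg/mL) with 2 μM dextromethorphan in 100 mM PBS, test compound at 1 μM or 0.1-30 μM, 15 min preincubation then NADPH-started reaction for 20 min at 37° C, in duplicate. Dextrorphan formation by UPLC-MS/MS; IC50 from % decrease versus uninhibited control.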

[1] = Hepatocyte clearance assay, rat; format: in vitro ADME; details: cryopreserved primary rat hepatocytes, average value from two experiments, read-out: Rat heps Clint
Outline: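 Cryopreserved rat or human hepatocytes, 0.5×10^6 viable cells/mL in L-15 medium, incubated with compound at 37 °C; samples to 120 min, duplicate. Parent loss by LC/MS/MS; t½ = 0.693/k from ln-linear regression, converted to CLint in μL/min/1×10^6 cells.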

Sequence of CYP2D6 (P10635 whole entry): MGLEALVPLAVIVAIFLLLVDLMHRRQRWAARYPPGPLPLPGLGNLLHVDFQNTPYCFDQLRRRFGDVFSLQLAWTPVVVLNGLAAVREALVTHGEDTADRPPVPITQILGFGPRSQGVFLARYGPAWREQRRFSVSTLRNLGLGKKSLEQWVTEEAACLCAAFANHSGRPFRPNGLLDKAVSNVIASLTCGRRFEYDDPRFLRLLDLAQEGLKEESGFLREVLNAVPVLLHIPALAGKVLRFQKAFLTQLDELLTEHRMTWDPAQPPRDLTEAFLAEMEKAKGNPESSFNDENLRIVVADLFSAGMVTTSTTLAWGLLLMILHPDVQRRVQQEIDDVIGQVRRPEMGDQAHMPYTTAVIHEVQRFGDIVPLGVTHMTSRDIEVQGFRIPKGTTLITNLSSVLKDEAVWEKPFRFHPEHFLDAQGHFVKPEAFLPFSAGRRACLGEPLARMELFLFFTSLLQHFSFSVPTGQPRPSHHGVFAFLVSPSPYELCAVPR

SMILES: Cc1n[nH]c2cc(/C=C/C(=O)NC3CCc4ccccc43)ccc12 (stereo not drawn) [Example 25, (E)-N-(2,3-dihydro-1H-inden-1-yl)-3-(3-methyl-1H-indazol-6-yl)acrylamide]
- IC50 (CYP2D6): 13.8 µM
- inhibition at 20 min, 1 µM (CYP2D6): 2.05%
- hepatocyte CLint at 1 µM [1]: 36.3 µL/min/1e6 cells

SMILES: Cc1c(F)cccc1NC(=O)/C=C/c1ccc2c(c1)NC(=O)C2C (stereo not drawn) [Example 8, (E)-N-(3-fluoro-2-methylphenyl)-3-(3-methyl-2-oxoindolin-6-yl)acrylamide]
- inhibition at 20 min, 1 µM (CYP2D6): 3.13%
- hepatocyte CLint at 1 µM [1]: 46 µL/min/1e6 cells

SMILES: Cc1cccc(C)c1NC(=O)/C=C/c1ccc2c(c1)NC(=O)C2 [Example 19, (E)-N-(2,6-dimethylphenyl)-3-(2-oxoindolin-6-yl)acrylamide]
- inhibition at 20 min, 1 µM (CYP2D6): -3.04%
- hepatocyte CLint at 1 µM [1]: 9.1 µL/min/1e6 cells

SMILES: Cc1c(F)cccc1NC(=O)/C=C/c1ccc2c(c1)[nH]c(=O)n2C [Example 7, (E)-N-(3-fluoro-2-methylphenyl)-3-(1-methyl-2-oxo-2,3-dihydro-1H-benzo[d]imidazol-5-yl)acrylamide]
- IC50 (CYP2D6): > 30 µM
- inhibition at 20 min, 1 µM (CYP2D6): 2.27%
- hepatocyte CLint at 1 µM [1]: 27 µL/min/1e6 cells

SMILES: Cc1c(F)cccc1NC(=O)/C=C/c1ccc2c(c1)NC(=O)C2 [Example 10, (E)-N-(3-fluoro-2-methylphenyl)-3-(2-oxoindolin-6-yl)acrylamide]
- IC50 (CYP2D6): > 30 µM
- inhibition at 20 min, 1 µM (CYP2D6): 3.66%
- hepatocyte CLint at 1 µM [1]: 21.1 µL/min/1e6 cells

SMILES: CO[C@H]1Cc2ccccc2[C@@H]1NC(=O)/C=C/c1ccc2c(C)n[nH]c2c1 [Example 54, (E)-N-((1S,2S)-2-methoxy-2,3-dihydro-1H-inden-1-yl)-3-(3-methyl-1H-indazol-6-yl)acrylamide]
- inhibition at 20 min, 1 µM (CYP2D6): 8.2%
- hepatocyte CLint at 1 µM [1]: 39.4 µL/min/1e6 cells

SMILES: CCn1c(=O)[nH]c2cc(/C=C/C(=O)Nc3cccc(F)c3C)ccc21 [Example 22, (E)-3-(1-ethyl-2-oxo-2,3-dihydro-1H-benzo[d]imidazol-5-yl)-N-(3-fluoro-2-methylphenyl)acrylamide]
- inhibition at 20 min, 1 µM (CYP2D6): 2.05%
- hepatocyte CLint at 1 µM [1]: 26.1 µL/min/1e6 cells

SMILES: Cc1c(F)cccc1NC(=O)/C=C/c1ccc2c(c1F)NC(=O)C2 [Example 5, (E)-N-(3-fluoro-2-methylphenyl)-3-(7-fluoro-2-oxoindolin-6-yl)acrylamide]
- inhibition at 20 min, 1 µM (CYP2D6): -2.57%
- hepatocyte CLint at 1 µM [1]: 27 µL/min/1e6 cells

SMILES: Cc1c(F)cccc1NC(=O)/C=C/c1ccc2c(c1)[nH]c(=O)n2C1CC1 [Example 23, (E)-3-(1-cyclopropyl-2-oxo-2,3-dihydro-1H-benzo[d]imidazol-5-yl)-N-(3-fluoro-2-methylphenyl)acrylamide]
- inhibition at 20 min, 1 µM (CYP2D6): 0.7%
- hepatocyte CLint at 1 µM [1]: 35.7 µL/min/1e6 cells

SMILES: Cc1c(F)cccc1NC(=O)/C(F)=C/c1ccc2c(c1)NC(=O)C2 [Example 47, (Z)-2-fluoro-N-(3-fluoro-2-methylphenyl)-3-(2-oxoindolin-6-yl)acrylamide]
- inhibition at 20 min, 1 µM (CYP2D6): 1.91%

SMILES: Cc1ccc(F)c(C)c1NC(=O)/C=C/c1ccc2c(c1)[nH]c(=O)n2C [Example 30, (E)-N-(3-fluoro-2,6-dimethylphenyl)-3-(1-methyl-2-oxo-2,3-dihydro-1H-benzo[d]imidazol-5-yl)acrylamide]
- inhibition at 20 min, 1 µM (CYP2D6): -3.33%
- hepatocyte CLint at 1 µM [1]: 12.1 µL/min/1e6 cells

SMILES: Cc1c(F)cccc1NC(=O)/C=C/c1ccc2cn[nH]c2c1 [Comparative Example 1, (E)-N-(2-methyl-3-fluorophenyl)-3-(1H-indazol-6-yl)acrylamide, reference compound]
- inhibition of CYP2D6 (in words) (CYP2D6): highly potent inhibitor of CYP2D6
- IC50 (CYP2D6): 0.074 µM
- inhibition at 20 min, 1 µM (CYP2D6): 86.5%
- hepatocyte CLint at 1 µM [1]: 89 µL/min/1e6 cells

SMILES: CO[C@H]1Cc2ccccc2[C@@H]1NC(=O)/C=C/c1ccc2c(F)n[nH]c2c1 [Example 73, (E)-3-(3-fluoro-1H-indazol-6-yl)-N-((1S,2S)-2-methoxy-2,3-dihydro-1H-Inden-1-yl)acrylamide]
- inhibition at 20 min, 1 µM (CYP2D6): 34.6%
- hepatocyte CLint at 1 µM [1]: 73.5 µL/min/1e6 cells

SMILES: Cc1c(F)cccc1NC(=O)/C=C/c1ccc2oc(=O)[nH]c2c1 [Example 6, (E)-N-(3-fluoro-2-methylphenyl)-3-(2-oxo-2,3-dihydrobenzo[d]oxazol-5-yl)acrylamide]
- IC50 (CYP2D6): 19 µM
- inhibition at 20 min, 1 µM (CYP2D6): 5.08%
- hepatocyte CLint at 1 µM [1]: 53.3 µL/min/1e6 cells
